In patent US6890947B2, “Indolyl derivatives” (Hoffmann-La Roche Inc., priority 2002, dated 2005):

Columns and labels:
mouse PPARγ [1] = biological target: T1, mouse PPARγ (Mus musculus, UniProt P37238); assay: PPARγ radioligand binding assay (GST-PPARγ-LBD fusion protein, scintillation proximity); settings: SPA
T1 sequence (P37238 204-505): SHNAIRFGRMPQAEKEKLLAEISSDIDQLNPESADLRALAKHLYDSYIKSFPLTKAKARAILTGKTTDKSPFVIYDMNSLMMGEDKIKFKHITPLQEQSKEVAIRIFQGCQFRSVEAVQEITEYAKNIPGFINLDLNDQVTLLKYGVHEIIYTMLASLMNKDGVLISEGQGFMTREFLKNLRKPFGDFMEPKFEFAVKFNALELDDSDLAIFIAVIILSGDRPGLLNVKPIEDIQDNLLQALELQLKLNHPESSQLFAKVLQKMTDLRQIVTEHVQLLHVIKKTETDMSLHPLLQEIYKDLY
From the text: (§1) Full-length cDNA clones for human PPARα and mouse PPARγ were obtained by RT-PCR from human adipose and mouse liver cRNA, respectively, cloned into plasmid vectors and verified by DNA sequencing. […] To accomplish this, the portions of the cloned sequences encoding the LBDs were amplified from the full-length clones by PCR and then subcloned into the plasmid vectors. Final clones were verified by DNA sequence analysis.
(§2) Induction, expression, and purification of GST-LBD fusion proteins were performed in E. coli strain BL21(pLysS) cells by standard methods (Ref: Current Protocols in Molecular Biology, Wiley Press, edited by Ausubel et al.).
(§3) Radioligand Binding Assay
(§4) PPARγ receptor binding was assayed in TKE50 (50 mM Tris-HCl, pH 8, 50 mM KCl, […], 0.1 mg/ml fatty acid-free […] and 10 mM DTT). For each 96 well reaction an 140 ng equivalent of GST-PPARγ-LBD fusion protein was bound to 10 ug SPA beads (PharmaciaAmersham) in a final volume of 50 ul by shaking. The resulting slurry was incubated for 1 h at RT and centrifuged for 2 min at 1300 g. The supernatant containing unbound protein was removed and the semidry pellet containing the recptor-coated beads was resolved in 50 ul of TKE. For radioligand binding e.g. 10000 dpm 2(S)-(2-benzoyl-phenylamino)-3-{4-[1, 1-ditritio-2-(5-methyl-2-phenyl-oxazol-4-yl)-ethoxy]-phenyl}-propionic acid in 50 ul were added, the reaction incubated at RT for 1h and scintillation proximity counting performed. All binding assays were performed in 96 well plates and the amount of bound ligand measured on a Packard TopCount using OptiPlates (Packard). Nonspecific binding was determined in the presence of 10^−4 M unlabelled compound. Dose response curves were done in triplicates within a range of concentration from 10^−10 M to 10^−4 M.

human PPARα [2] = biological target: T2, human PPARα (Homo sapiens, UniProt Q07869); assay: Luciferase transcriptional reporter gene assay, pFA-PPARα-LBD in BHK21 cells; type: cell-based; settings: Gal4-PPARα-LBD
T2 sequence (Q07869 167-468 limits assumed): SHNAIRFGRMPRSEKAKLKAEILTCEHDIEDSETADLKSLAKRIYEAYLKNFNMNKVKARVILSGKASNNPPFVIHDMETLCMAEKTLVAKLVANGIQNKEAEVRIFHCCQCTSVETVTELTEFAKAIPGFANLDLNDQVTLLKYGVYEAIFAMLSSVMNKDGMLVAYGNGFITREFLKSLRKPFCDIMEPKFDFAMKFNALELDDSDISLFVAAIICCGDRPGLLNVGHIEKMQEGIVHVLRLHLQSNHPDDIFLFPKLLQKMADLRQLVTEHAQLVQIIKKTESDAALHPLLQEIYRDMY
From the text: as §1
(§5) Luciferase Transcriptional Reporter Gene Assays
(§6) Baby hamster kidney cells (BHK21 ATCC CCL10) were grown in DMEM medium containing 10% FBS at 37° C. in a […] atmosphere. Cells were seeded in 6 well plates at a density of 10^5 Cells/well and then transiently batch-transfected with either the pFA-PPARγ-LBD or pFA-PPARα-LBD expression plasmids plus the pFR-luc reporter plasmid and an expression plasmid encoding the secretable form of alkaline phosphatase (SEAP) as a normalization control. […] Six hours following transfection, the cells were harvested by trypsinization and seeded in 96 well plates at a density of 10^4 cells/well. After 24 hours to allow attachment of cells, the medium was removed and replaced with 100 ul of phenol red-free medium containing the test substances or control ligands (final. 0.1% DMSO). Following incubation of the cells for 24 hours with substances, 50 ul of the supernatant was recovered and analyzed for SEAP activity (Roche Molecular Biochemicals). The remainder of the supernatant was discarded, 50 ul PBS was added per well followed by one volume of Luciferase Constant-Light Reagent (Roche Molecular Biochemicals) to lyse the cells and initiate the luciferase reaction. Luminescence for both SEAP and luciferase was measured in a Packard TopCount. Luciferase activity was normalized to the SEAP control and transcriptional activation in the presence of a test substance was expressed as fold-activation over cells incubated in the absence of the substance. EC50 values were calculated using the XLfit program (ID Business Solutions Ltd. UK).

human PPARα [3] = biological target: T2, human PPARα; assay: PPARα radioligand binding assay (GST-PPARα-LBD fusion protein); design: made in house; host or cells: E. coli BL21(pLysS)
From the text: as §1, §2, §3
PPARα receptor binding was assayed in TKE10 (10 mM Tris-HCl, pH 8, 50 mM KCl, 2 mM EDTA, […] fatty acid free BSA and 10 mM DTT). For each 96 well 2.4 ug equivalent of GST-PPARα-LBD fusion protein and radioligand, e.g. 40000 dpm 2(S)-(2-benzoyl-phenylamino)-3-{4-[1,1-ditritio-2-(5-methyl-2-phenyl-oxazol-4-yl)-ethoxy]-phenyl}-propionic acid, were incubated in 100 ul volume at RT for 2 hrs. Bound ligand was removed from unbound ligand by solid phase separation using MultiScreen plates (Millipore) filled with 80 ul of SG25 according to the manufacturer's recommendations.
as §4

mouse PPARγ [4] = biological target: T1, mouse PPARγ; assay: Luciferase transcriptional reporter gene assay, pFA-PPARγ-LBD in BHK21 cells; type: cell-based; design: expressed in transfected cells; host or cells: BHK21 (ATCC CCL10); settings: Gal4-PPARγ-LBD
From the text: as §1, §5, §6

Compound	IC50 (mouse PPARγ [1])	EC50 (human PPARα [2])	IC50 (human PPARα [3])	EC50 (mouse PPARγ [4])
CCOC(Cc1ccc2c(c1)c(C)cn2Cc1nc(-c2ccc(F)c(C)c2)oc1C)C(=O)O (racemic) [Example 39, Rac-2-Ethoxy-3-{1-[2-(4-fluoro-3-methyl-phenyl)-5-methyl-oxazol-4-ylmethyl]-3-methyl-1H-indol-5-yl}-propionic Acid]	110 nM	470 nM	60 nM	20 nM
CCOC(Cc1ccc2c(c1)cc(C)n2Cc1csc(-c2ccccc2)n1)C(=O)O (racemic) [Example 44, Rac-2-Ethoxy-3-[2-methyl-1-(2-phenyl-thiazol-4-ylmethyl)-1H-indol-5-yl]-propionic Acid]	1410 nM	5240 nM	1640 nM	2700 nM
CCO[C@@H](Cc1ccc2c(ccn2Cc2nc(-c3ccccc3Cl)oc2C)c1)C(=O)O [Example 5, (S)-3-{1-[2-(2-Chloro-phenyl)-5-methyl-oxazol-4-ylmethyl]-1H-indol-5-yl}-2-ethoxy-propionic Acid]	–	1520 nM	240 nM	–

Stronger by EC50 (human PPARα [2]), values ahead:

IC50 (mouse PPARγ [1])	EC50 (human PPARα [2])	IC50 (human PPARα [3])	EC50 (mouse PPARγ [4])	Compound
400 nM	190 nM	280 nM	560 nM	CCO[C@@H](Cc1ccc2c(ccn2Cc2nc(-c3ccccc3OC)oc2C)c1)C(=O)O [Example 8, (S)-2-Ethoxy-3-{1-[2-(2-methoxy-phenyl)-5-methyl-oxazol-4-ylmethyl]-1H-indol-5-yl}-propionic Acid]
180 nM	80 nM	30 nM	130 nM	CCO[C@@H](Cc1ccc2c(ccn2Cc2nc(-c3ccc(C(F)(F)F)cc3)oc2C)c1)C(=O)O [Example 18, (S)-2-Ethoxy-3-{1-[5-methyl-2-(4-trifluoromethyl-phenyl)-oxazol-4-ylmethyl]-1H-indol-5-yl}-propionic Acid]
50 nM	60 nM	120 nM	50 nM	CCO[C@@H](Cc1ccc2c(ccn2Cc2nc(-c3ccc(F)c(C)c3)oc2C)c1)C(=O)O [Example 25, (S)-2-Ethoxy-3-{1-[2-(4-fluoro-3-methyl-phenyl)-5-methyl-oxazol-4-ylmethyl]-1H-indol-5-yl}-propionic Acid]
–	30 nM	30 nM	–	CCO[C@@H](Cc1ccc2c(ccn2Cc2nc(-c3cc(OC)cc(OC)c3)oc2C)c1)C(=O)O [Example 21, (S)-3-{1-[2-(3,5-Dimethoxy-phenyl)-5-methyl-oxazol-4-ylmethyl]-1H-indol-5-yl}-2-ethoxy-propionic Acid]
